± gives the standard deviation of the averaged measurements.
Compound: NC1(c2ccc(-c3nc4ccn5c(=O)[nH]nc5c4cc3-c3ccccc3)cc2)CCC1 [MK2206]
Assay: surviving fraction relative to DMSO-only wells; higher = less growth inhibition
Conditions: 50 nM; exposure time: 5 days
Method in brief: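 After seeding at 250–500 cells per well in 384-well plates and a 24-hour wait, log-phase tumour cell lines were exposed without interruption for five days to inhibitors at 0.5, 1, 5, 10, 50, 100, 500 and 1000 nM. CellTiter-Glo luminescence was recorded after 10 minutes at room temperature. Viability is reported as surviving fraction, the luminescence normalised to the median of DMSO-only wells.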

First: 22RV1 PROSTATE
Second: 93VU HEADNECK
The surviving fraction of the first is lower: 0.707 ± 0.12 for the first, 1.02 ± 0.045 for the second.

Going from 143B BONE to A549 LUNG, the surviving fraction rises from 0.957 ± 0.024 to 1.06 ± 0.017.

Compared with ASKA SYNOVIAL, BT20 BREAST is higher in surviving fraction: 0.771 ± 0.038 for the first, 1.11 ± 0.12 for the second.

BT549 BREAST and CADOES1 SOFT TISSUE are within error of each other in surviving fraction: 0.837 ± 0.05 for the first, 0.828 ± 0.088 for the second.

CAL51 BREAST and CAL120 BREAST are within error of each other in surviving fraction: 0.996 ± 0.043 for the first, 0.966 ± 0.051 for the second.

Compared with CASKI CERVIX, CHLA90 AUTONOMIC GANGLIA is higher in surviving fraction: 0.736 ± 0.055 for the first, 0.945 ± 0.024 for the second.

CME SYNOVIAL and COLO320DM LARGE INTESTINE are within error of each other in surviving fraction: 1.18 ± 0.085 for the first, 1.03 ± 0.15 for the second.

DU4475 BREAST and H23 LUNG are within error of each other in surviving fraction: 0.828 ± 0.1 for the first, 0.911 ± 0.043 for the second.

First: HCC38 BREAST
Second: HCC70 BREAST
The surviving fraction of the first is higher: 1.32 ± 0.23 for the first, 0.93 ± 0.076 for the second.

HCC78 LUNG and HCC202 BREAST are within error of each other in surviving fraction: 0.848 ± 0.073 for the first, 0.699 ± 0.37 for the second.

Going from HCC1806 BREAST to HCC1954 BREAST, the surviving fraction falls from 1.05 ± 0.072 to 0.896 ± 0.035.

HCT15 LARGE INTESTINE and HELA CERVIX are the same in surviving fraction: 1.02 ± 0.063 for the first, 1.02 ± 0.057 for the second.

HMLE3 BREAST and HMT3552 BREAST are within error of each other in surviving fraction: 0.895 ± 0.14 for the first, 1.03 ± 0.041 for the second.

Compared with HOS BONE, HOSMNG BONE is lower in surviving fraction: 0.978 ± 0.021 for the first, 0.773 ± 0.076 for the second.

HS57T BREAST and HS578T BREAST are within error of each other in surviving fraction: 0.962 ± 0.013 for the first, 1.03 ± 0.19 for the second.

Compared with HSSYII SYNOVIAL, HT1080 SOFT TISSUE is higher in surviving fraction: 0.903 ± 0.059 for the first, 1.05 ± 0.026 for the second.

First: HU09 BONE
Second: JIMT1 BREAST
The surviving fraction of the first is lower: 0.849 ± 0.039 for the first, 0.929 ± 0.012 for the second.

Going from “JURKAT HAEMATOPOIETIC AND LYMPHOID TISSUE” to KPD BONE, the surviving fraction falls from 0.871 ± 0.0053 to 0.634 ± 0.013.

LM7 BONE and MCF7 BREAST are within error of each other in surviving fraction: 0.84 ± 0.069 for the first, 0.882 ± 0.065 for the second.

Compared with MDAMB134 BREAST, MDAMB157 BREAST is higher in surviving fraction: 0.703 ± 0.016 for the first, 0.96 ± 0.053 for the second.

MDAMB231 BREAST was tested, and the surviving fraction was 0.903 ± 0.027.

Same assay, conditions: 100 nM; exposure time: 5 days

Going from 22RV1 PROSTATE to 93VU HEADNECK, the surviving fraction rises from 0.762 ± 0.064 to 0.999 ± 0.11.

Going from 143B BONE to A549 LUNG, the surviving fraction rises from 0.959 ± 0.064 to 1.08 ± 0.026.

Going from ASKA SYNOVIAL to BT20 BREAST, the surviving fraction rises from 0.724 ± 0.064 to 1.16 ± 0.052.

BT549 BREAST and CADOES1 SOFT TISSUE are within error of each other in surviving fraction: 0.833 ± 0.091 for the first, 0.815 ± 0.092 for the second.

CAL51 BREAST and CAL120 BREAST are within error of each other in surviving fraction: 0.993 ± 0.072 for the first, 0.951 ± 0.031 for the second.

Going from CASKI CERVIX to CHLA90 AUTONOMIC GANGLIA, the surviving fraction rises from 0.627 ± 0.039 to 0.997 ± 0.1.

First: CME SYNOVIAL
Second: COLO320DM LARGE INTESTINE
The surviving fraction of the first is higher: 1.23 ± 0.18 for the first, 0.969 ± 0.059 for the second.

Compared with DU4475 BREAST, H23 LUNG is higher in surviving fraction: 0.784 ± 0.019 for the first, 0.883 ± 0.046 for the second.

Going from HCC38 BREAST to HCC70 BREAST, the surviving fraction falls from 1.15 ± 0.083 to 0.869 ± 0.094.

HCC78 LUNG and HCC202 BREAST are within error of each other in surviving fraction: 0.529 ± 0.13 for the first, 0.688 ± 0.035 for the second.

HCC1806 BREAST and HCC1954 BREAST are within error of each other in surviving fraction: 1.02 ± 0.099 for the first, 0.9938 ± 0.0039 for the second.

HCT15 LARGE INTESTINE and HELA CERVIX are within error of each other in surviving fraction: 1.07 ± 0.025 for the first, 1.09 ± 0.035 for the second.

HMLE3 BREAST and HMT3552 BREAST are within error of each other in surviving fraction: 0.843 ± 0.098 for the first, 0.909 ± 0.076 for the second.

HOS BONE and HOSMNG BONE are within error of each other in surviving fraction: 0.948 ± 0.021 for the first, 0.802 ± 0.15 for the second.

HS57T BREAST and HS578T BREAST are within error of each other in surviving fraction: 0.938 ± 0.05 for the first, 0.829 ± 0.08 for the second.

Compared with HSSYII SYNOVIAL, HT1080 SOFT TISSUE is higher in surviving fraction: 0.921 ± 0.037 for the first, 1.05 ± 0.012 for the second.

First: HU09 BONE
Second: JIMT1 BREAST
The surviving fraction of the first is lower: 0.63 ± 0.05 for the first, 0.917 ± 0.027 for the second.

First: JURKAT HAEMATOPOIETIC AND LYMPHOID TISSUE
Second: KPD BONE
The surviving fraction of the first is higher: 0.787 ± 0.025 for the first, 0.467 ± 0.024 for the second.

LM7 BONE and MCF7 BREAST are within error of each other in surviving fraction: 0.818 ± 0.056 for the first, 0.841 ± 0.078 for the second.

Going from MDAMB134 BREAST to MDAMB157 BREAST, the surviving fraction rises from 0.783 ± 0.072 to 0.949 ± 0.019.

With MDAMB231 BREAST the surviving fraction was 0.934 ± 0.033.

Source: the supplement of paper PMC6045584
